Results as given in US20240109918A1, “HETEROCYCLIC COMPOUNDS AND USES THEREOF” (Kumquat Biosciences Inc., priority 2022, published 2024).
pIC50: −log10 of the molar value.

Experiments:
[1] = target: T1, KRASG12D (Homo sapiens, UniProt P01116, G12D); assay: Bio-Biochem-PPI-HTRF Ras-SOS1 interaction assay (KRAS G12D); assay type: biochemical; details: 5 nM
T1 construct: made in house; host or cells: E. coli BL21 (DE3)
Outline: (§1)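 HTRF readout (ex 337 nm; em 620 and 665 nm) after ≥~10 min incubation; IC50 fitted from 665/620 ratio. GST-K-Ras wt or G12D plus anti-GST-Eu(K), His-hSOS1 plus anti-6His-XL665; duplicate dilutions, 10 μM top.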

[2] = target: T2, KRASwt (Homo sapiens, UniProt P01116); assay: Bio-Biochem-PPI-HTRF Ras-SOS1 interaction assay (KRAS wt); assay type: biochemical; details: 5 nM
T2 construct: made in house; host or cells: E. coli BL21 (DE3)
Outline: as §1

T1 sequence (P01116 1-188 isoform P01116-2 G12D): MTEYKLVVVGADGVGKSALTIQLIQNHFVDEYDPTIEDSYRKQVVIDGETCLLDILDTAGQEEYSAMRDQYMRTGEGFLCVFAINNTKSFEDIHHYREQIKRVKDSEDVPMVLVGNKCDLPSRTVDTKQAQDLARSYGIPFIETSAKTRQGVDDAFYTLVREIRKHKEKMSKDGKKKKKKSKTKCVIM
T2 sequence (P01116 1-188 isoform P01116-2): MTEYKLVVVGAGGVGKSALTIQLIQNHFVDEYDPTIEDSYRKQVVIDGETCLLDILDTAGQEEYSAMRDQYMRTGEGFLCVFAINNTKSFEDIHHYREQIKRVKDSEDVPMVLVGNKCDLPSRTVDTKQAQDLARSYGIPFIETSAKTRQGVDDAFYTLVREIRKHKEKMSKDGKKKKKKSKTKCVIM

Structure (SMILES) | pIC50 [1] | pIC50 [2]
N#Cc1c(N)sc2c(F)ccc(-c3c(Cl)cc4c(N5CCOCC6(CN(C(=O)[C@H]7CC7(F)F)C6)C5)nc(OC[C@@]56CCCN5C[C@H](F)C6)nc4c3F)c12 [compound 247, 2-amino-4-(6-chloro-4-(2-((R)-2,2-difluorocyclopropane-1-carbonyl)-6-oxa-2,9-diazaspiro[3.6]decan-9-yl)-8-fluoro-2-(((2R,7aS)-2-fluorotetrahydro-1H-pyrrolizin-7a(5H)-yl)methoxy)quinazolin-7-yl)-7-fluorobenzo[b]thiophene-3-carbonitrile] | > 5.30 | > 5.30
N#Cc1c(N)sc2c(F)ccc(-c3c(Cl)cc4c(N5CCCCC6(CN(C(=O)[C@H]7C[C@@H]7F)C6)C5)nc(OC[C@@]56CCCN5C[C@H](F)C6)nc4c3F)c12 [compound 284, 2-amino-4-(6-chloro-8-fluoro-4-(2-((1R,2S)-2-fluorocyclopropane-1-carbonyl)-2,6-diazaspiro[3.6]decan-6-yl)-2-(((2R,7aS)-2-fluorotetrahydro-1H-pyrrolizin-7a(5H)-yl)methoxy)quinazolin-7-yl)-7-fluorobenzo[b]thiophene-3-carbonitrile] | > 5.30 | > 5.30
C#Cc1c(F)ccc2cc(O)cc(-c3ccc4c(N5CCCC6(CNC6)C5)nc(OC[C@@]56CCCN5C[C@H](F)C6)nc4c3F)c12 [compound 161, 5-ethynyl-6-fluoro-4-(8-fluoro-2-(((2R,7aS)-2-fluorotetrahydro-1H-pyrrolizin-7a(5H)-yl)methoxy)-4-(2,6-diazaspiro[3.5]nonan-6-yl)quinazolin-7-yl)naphthalen-2-ol] | > 5.30 | > 5.30
N#Cc1c(N)sc2c(F)ccc(-c3c(Cl)cc4c(N5CCCC6(CN(C(=O)C(F)F)C6)C5)nc(OC[C@@]56CCCN5C[C@H](F)C6)nc4c3F)c12 [compound 125, 2-amino-4-(6-chloro-4-(2-(2,2-difluoroacetyl)-2,6-diazaspiro[3.5]nonan-6-yl)-8-fluoro-2-(((2R,7aS)-2-fluorotetrahydro-1H-pyrrolizin-7a(5H)-yl)methoxy)quinazolin-7-yl)-7-fluorobenzo[b]thiophene-3-carbonitrile] | > 5.30 | > 5.30
N#Cc1c(N)sc2c(F)ccc(-c3c(Cl)cc4c(N5CCOC6(CNC6)C5)nc(OC[C@@]56CCCN5C[C@H](F)C6)nc4c3F)c12 [compound 175, 2-amino-4-(6-chloro-8-fluoro-2-(((2R,7aS)-2-fluorotetrahydro-1H-pyrrolizin-7a(5H)-yl)methoxy)-4-(5-oxa-2,8-diazaspiro[3.5]nonan-8-yl)quinazolin-7-yl)-7-fluorobenzo[b]thiophene-3-carbonitrile] | > 5.30 | > 5.30
N#Cc1c(N)sc2c(F)ccc(-c3c(Cl)cc4c(N5CCCCC6(CN(C(=O)C7CC78CC8)C6)C5)nc(OC[C@@]56CCCN5C[C@H](F)C6)nc4c3F)c12 (stereo partly drawn) [compound 286, 2-amino-4-(6-chloro-8-fluoro-2-(((2R,7aS)-2-fluorotetrahydro-1H-pyrrolizin-7a(5H)-yl)methoxy)-4-(2-(spiro[2.2]pentane-1-carbonyl)-2,6-diazaspiro[3.6]decan-6-yl)quinazolin-7-yl)-7-fluorobenzo[b]thiophene-3-carbonitrile] | > 5.30 | > 5.30
N#Cc1c(N)sc2c(F)ccc(-c3c(Cl)cc4c(N5CCCCC6(CN(C(=O)C7CC7)C6)C5)nc(OC[C@@]56CCCN5C[C@H](F)C6)nc4c3F)c12 [compound 201, 2-amino-4-(6-chloro-4-(2-(cyclopropanecarbonyl)-2,6-diazaspiro[3.6]decan-6-yl)-8-fluoro-2-(((2R,7aS)-2-fluorotetrahydro-1H-pyrrolizin-7a(5H)-yl)methoxy)quinazolin-7-yl)-7-fluorobenzo[b]thiophene-3-carbonitrile] | > 5.30 | > 5.30
C[C@H](Oc1nc(N2CCOC3(CNC3)C2)c2cc(Cl)c(-c3ccc(F)c4sc(N)c(C#N)c34)c(F)c2n1)[C@@H]1CCCN1C [compound 110, 2-amino-4-(6-chloro-8-fluoro-2-((S)-1-((S)-1-methylpyrrolidin-2-yl)ethoxy)-4-(5-oxa-2,8-diazaspiro[3.5]nonan-8-yl)quinazolin-7-yl)-7-fluorobenzo[b]thiophene-3-carbonitrile] | > 5.30 | > 5.30
N#Cc1c(N)sc2c(F)ccc(-c3c(Cl)cc4c(N5CCCCC6(CN(C(=O)CC7COC7)C6)C5)nc(OC[C@@]56CCCN5C[C@H](F)C6)nc4c3F)c12 [compound 273, 2-amino-4-(6-chloro-8-fluoro-2-(((2R,7aS)-2-fluorotetrahydro-1H-pyrrolizin-7a(5H)-yl)methoxy)-4-(2-(2-(oxetan-3-yl)acetyl)-2,6-diazaspiro[3.6]decan-6-yl)quinazolin-7-yl)-7-fluorobenzo[b]thiophene-3-carbonitrile] | > 5.30 | > 5.30
N#CCC1CCN(c2nc(OC[C@@]34CCCN3C[C@H](F)C4)nc3c(F)c(-c4ccc(F)c5sc(N)c(C#N)c45)c(Cl)cc23)CC2(C1)CN(C(=O)C1CC1(F)F)C2 (stereo partly drawn) [compound 324, 2-amino-4-(6-chloro-4-(9-(cyanomethyl)-2-(2,2-difluorocyclopropane-1-carbonyl)-2,6-diazaspiro[3.6]decan-6-yl)-8-fluoro-2-(((2R,7aS)-2-fluorotetrahydro-1H-pyrrolizin-7a(5H)-yl)methoxy)quinazolin-7-yl)-7-fluorobenzo[b]thiophene-3-carbonitrile] | > 5.30 | > 5.30
N#Cc1c(N)sc2c(F)ccc(-c3c(F)c4nc(OC[C@@]56CCCN5C[C@H](F)C6)nc(N5CCCCC6(CN(C(=O)C7CC7(F)F)C6)C5)c4c(=O)n3C3CC3)c12 (stereo partly drawn) [compound 246, 2-amino-4-(6-cyclopropyl-4-(2-(2,2-difluorocyclopropane-1-carbonyl)-2,6-diazaspiro[3.6]decan-6-yl)-8-fluoro-2-(((2R,7aS)-2-fluorotetrahydro-1H-pyrrolizin-7a(5H)-yl)methoxy)-5-oxo-5,6-dihydropyrido[4,3-d]pyrimidin-7-yl)-7-fluorobenzo[b]thiophene-3-carbonitrile] | > 5.30 | > 5.30
N#Cc1c(N)sc2c(F)ccc(-c3c(Cl)cc4c(N5CCCCC6(CN(C(=O)[C@@H]7CCCN7)C6)C5)nc(OC[C@@]56CCCN5C[C@H](F)C6)nc4c3F)c12 [compound 296, 4-(4-(2-(L-prolyl)-2,6-diazaspiro[3.6]decan-6-yl)-6-chloro-8-fluoro-2-(((2R,7aS)-2-fluorotetrahydro-1H-pyrrolizin-7a(5H)-yl)methoxy)quinazolin-7-yl)-2-amino-7-fluorobenzo[b]thiophene-3-carbonitrile] | > 5.30 | > 5.30
N#Cc1c(N)sc2c(F)ccc(-c3c(Cl)cc4c(N5CCCCC6(CN(C(=O)C7C8CCOC87)C6)C5)nc(OC[C@@]56CCCN5C[C@H](F)C6)nc4c3F)c12 (stereo partly drawn) [compound 270, 4-(4-(2-(2-oxabicyclo[3.1.0]hexane-6-carbonyl)-2,6-diazaspiro [3.6]decan-6-yl)-6-chloro-8-fluoro-2-(((2R,7aS)-2-fluorotetrahydro-1H-pyrrolizin-7a(5H)-yl)methoxy)quinazolin-7-yl)-2-amino-7-fluorobenzo[b]thiophene-3-carbonitrile] | > 5.30 | > 5.30
CC1(C(=O)N2CC3(CCCCN(c4nc(OC[C@@]56CCCN5C[C@H](F)C6)nc5c(F)c(-c6ccc(F)c7sc(N)c(C#N)c67)c(Cl)cc45)C3)C2)CC1 [compound 228, 2-amino-4-(6-chloro-8-fluoro-2-(((2R,7aS)-2-fluorotetrahydro-1H-pyrrolizin-7a(5H)-yl)methoxy)-4-(2-(1-methylcyclopropane-1-carbonyl)-2,6-diazaspiro[3.6]decan-6-yl)quinazolin-7-yl)-7-fluorobenzo[b]thiophene-3-carbonitrile] | > 5.30 | > 5.30
Nc1nc2c(-c3c(Cl)cc4c(N5CCC6(CC5)CN(C(=O)c5nc[nH]n5)C6)nc(OC[C@@]56CCCN5C[C@H](F)C6)nc4c3F)ccc(F)c2s1 [compound 248, (7-(7-(2-amino-7-fluorobenzo[d]thiazol-4-yl)-6-chloro-8-fluoro-2-(((2R,7aS)-2-fluorotetrahydro-1H-pyrrolizin-7a(5H)-yl)methoxy)quinazolin-4-yl)-2,7-diazaspiro[3.5]nonan-2-yl) (1H-1,2,4-triazol-3-yl)methanone] | > 5.30 | > 5.30
N#Cc1c(N)sc2c(F)ccc(-c3c(Cl)cc4c(N5CCCC6(CN(C(=O)[C@@H]7C[C@H]7C#N)C6)C5)nc(OC[C@@]56CCCN5C[C@H](F)C6)nc4c3F)c12 [compound 104, 2-amino-4-(6-chloro-4-(2-((1R,2R)-2-cyanocyclopropane-1-carbonyl)-2,6-diazaspiro[3.5]nonan-6-yl)-8-fluoro-2-(((2R,7aS)-2-fluorotetrahydro-1H-pyrrolizin-7a(5H)-yl)methoxy)quinazolin-7-yl)-7-fluorobenzo[b]thiophene-3-carbonitrile] | > 5.30 | > 5.30
CC(F)(F)C(=O)N1CC2(CCCCN(c3nc(OC[C@@]45CCCN4C[C@H](F)C5)nc4c(F)c(-c5ccc(F)c6sc(N)c(C#N)c56)c(Cl)cc34)C2)C1 [compound 213, 2-amino-4-(6-chloro-4-(2-(2,2-difluoropropanoyl)-2,6-diazaspiro[3.6]decan-6-yl)-8-fluoro-2-(((2R,7aS)-2-fluorotetrahydro-1H-pyrrolizin-7a(5H)-yl)methoxy)quinazolin-7-yl)-7-fluorobenzo[b]thiophene-3-carbonitrile] | > 5.30 | > 5.30
N#Cc1c(N)sc2c(F)ccc(-c3c(Cl)cc4c(N5CCCC6(CCNC6)C5)nc(OC[C@@]56CCCN5C[C@H](F)C6)nc4c3F)c12 (stereo partly drawn) [compound 111, 2-amino-4-(6-chloro-8-fluoro-2-(((2R,7aS)-2-fluorotetrahydro-1H-pyrrolizin-7a(5H)-yl)methoxy)-4-(2,7-diazaspiro[4.5]decan-7-yl)quinazolin-7-yl)-7-fluorobenzo[b]thiophene-3-carbonitrile] | > 5.30 | > 5.30
